Assay results taken from ChEMBL document CHEMBL3124838, “Discovery of 6-aryl-azabenzimidazoles that inhibit the TBK1/IKK-ε kinases” (Bioorg Med Chem Lett, 2014).

Key:
[1] = molecular target: T1, Cytoplasmic tyrosine-protein kinase BMX (Homo sapiens) (UniProt P51813); assay: Inhibition of human BMX assessed as residual activity at 1 uM relative to control
T1 sequence (whole entry): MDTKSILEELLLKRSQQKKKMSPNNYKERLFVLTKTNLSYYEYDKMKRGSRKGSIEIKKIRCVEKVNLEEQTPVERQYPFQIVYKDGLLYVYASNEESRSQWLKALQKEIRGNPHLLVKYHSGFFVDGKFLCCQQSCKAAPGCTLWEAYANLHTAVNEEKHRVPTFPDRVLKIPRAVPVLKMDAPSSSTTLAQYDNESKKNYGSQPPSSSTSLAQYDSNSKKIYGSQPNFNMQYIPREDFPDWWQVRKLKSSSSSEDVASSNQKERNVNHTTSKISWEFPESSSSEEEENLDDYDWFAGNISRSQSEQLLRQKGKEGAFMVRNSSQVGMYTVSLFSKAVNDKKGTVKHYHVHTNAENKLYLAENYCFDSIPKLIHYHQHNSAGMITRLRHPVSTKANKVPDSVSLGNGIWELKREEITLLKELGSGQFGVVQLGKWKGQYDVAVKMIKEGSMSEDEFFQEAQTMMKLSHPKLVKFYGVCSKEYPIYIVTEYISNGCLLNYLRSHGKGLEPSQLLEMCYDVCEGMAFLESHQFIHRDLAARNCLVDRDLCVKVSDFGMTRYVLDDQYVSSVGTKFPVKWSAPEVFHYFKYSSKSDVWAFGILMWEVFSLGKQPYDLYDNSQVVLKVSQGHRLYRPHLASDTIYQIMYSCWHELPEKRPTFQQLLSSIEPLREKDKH

[2] = molecular target: CDK7/Cyclin H/MNAT1 (Homo sapiens) (UniProt P51946+P50613+P51948); assay: Inhibition of human CDK7/cyclin H/MAT1 assessed as residual activity at 1 uM relative to control; type: protein-complex assay
[3] = molecular target: Fibroblast growth factor receptor 2 (Homo sapiens) (UniProt P21802); assay: Inhibition of human FGFR2 assessed as residual activity at 1 uM relative to control
Fibroblast growth factor receptor 2 (Homo sapiens), sequence (P21802 22-821 limits assumed): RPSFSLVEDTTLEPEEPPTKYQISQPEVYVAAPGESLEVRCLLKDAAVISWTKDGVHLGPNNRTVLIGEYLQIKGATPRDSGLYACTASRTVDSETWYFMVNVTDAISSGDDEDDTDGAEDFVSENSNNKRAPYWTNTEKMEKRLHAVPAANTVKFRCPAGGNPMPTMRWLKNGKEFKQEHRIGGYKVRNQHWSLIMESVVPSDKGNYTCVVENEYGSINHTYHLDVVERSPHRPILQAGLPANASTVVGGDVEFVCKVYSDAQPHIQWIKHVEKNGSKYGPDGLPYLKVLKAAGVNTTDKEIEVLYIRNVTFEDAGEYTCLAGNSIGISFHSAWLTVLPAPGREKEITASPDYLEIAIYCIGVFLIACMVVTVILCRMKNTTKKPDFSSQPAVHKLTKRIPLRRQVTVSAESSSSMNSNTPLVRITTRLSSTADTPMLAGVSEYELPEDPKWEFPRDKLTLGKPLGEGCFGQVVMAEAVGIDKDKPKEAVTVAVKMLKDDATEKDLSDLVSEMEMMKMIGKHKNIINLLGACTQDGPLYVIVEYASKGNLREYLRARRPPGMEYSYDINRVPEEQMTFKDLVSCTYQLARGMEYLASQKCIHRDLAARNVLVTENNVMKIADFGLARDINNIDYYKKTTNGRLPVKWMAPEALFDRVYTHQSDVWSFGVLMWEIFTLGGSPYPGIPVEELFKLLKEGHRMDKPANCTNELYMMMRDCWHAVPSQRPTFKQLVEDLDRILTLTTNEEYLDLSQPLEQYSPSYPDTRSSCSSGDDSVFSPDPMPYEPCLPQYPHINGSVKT

[4] = molecular target: T2, Tyrosine-protein kinase JAK3 (Homo sapiens) (UniProt P52333); assay: Inhibition of human JAK3 assessed as residual activity at 1 uM relative to control
T2 sequence (whole entry): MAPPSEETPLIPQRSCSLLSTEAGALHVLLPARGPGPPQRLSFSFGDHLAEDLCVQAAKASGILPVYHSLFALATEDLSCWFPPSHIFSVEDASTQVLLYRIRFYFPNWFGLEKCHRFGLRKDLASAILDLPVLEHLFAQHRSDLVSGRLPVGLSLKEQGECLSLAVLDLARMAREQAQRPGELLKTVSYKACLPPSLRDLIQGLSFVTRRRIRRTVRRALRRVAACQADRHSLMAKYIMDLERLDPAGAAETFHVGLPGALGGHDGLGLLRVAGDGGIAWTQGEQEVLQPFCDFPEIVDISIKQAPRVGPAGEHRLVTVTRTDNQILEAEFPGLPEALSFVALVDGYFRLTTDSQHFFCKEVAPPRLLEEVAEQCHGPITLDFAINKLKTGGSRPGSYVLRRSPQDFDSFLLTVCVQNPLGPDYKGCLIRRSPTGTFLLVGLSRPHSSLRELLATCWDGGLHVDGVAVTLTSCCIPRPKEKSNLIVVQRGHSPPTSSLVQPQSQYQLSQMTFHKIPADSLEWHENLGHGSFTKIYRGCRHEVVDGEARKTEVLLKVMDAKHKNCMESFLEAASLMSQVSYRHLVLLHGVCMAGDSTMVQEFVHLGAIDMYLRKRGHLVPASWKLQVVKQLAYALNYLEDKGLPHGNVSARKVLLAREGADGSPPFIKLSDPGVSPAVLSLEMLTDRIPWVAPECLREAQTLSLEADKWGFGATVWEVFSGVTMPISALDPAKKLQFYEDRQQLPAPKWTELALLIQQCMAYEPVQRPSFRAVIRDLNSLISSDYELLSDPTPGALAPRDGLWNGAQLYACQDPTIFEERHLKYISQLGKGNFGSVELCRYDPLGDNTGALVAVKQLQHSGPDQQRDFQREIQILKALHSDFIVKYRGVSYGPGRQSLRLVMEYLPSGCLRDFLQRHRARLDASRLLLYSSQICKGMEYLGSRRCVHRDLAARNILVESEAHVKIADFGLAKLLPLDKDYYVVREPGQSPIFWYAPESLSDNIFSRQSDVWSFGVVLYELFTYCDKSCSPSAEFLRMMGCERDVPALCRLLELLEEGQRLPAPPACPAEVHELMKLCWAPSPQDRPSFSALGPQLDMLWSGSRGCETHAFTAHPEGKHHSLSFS

[5] = molecular target: Serine/threonine-protein kinase PAK 4 (Homo sapiens) (UniProt O96013); assay: Inhibition of human PAK4 assessed as residual activity at 1 uM relative to control
Serine/threonine-protein kinase PAK 4 (Homo sapiens), sequence (O96013 whole entry, looked up): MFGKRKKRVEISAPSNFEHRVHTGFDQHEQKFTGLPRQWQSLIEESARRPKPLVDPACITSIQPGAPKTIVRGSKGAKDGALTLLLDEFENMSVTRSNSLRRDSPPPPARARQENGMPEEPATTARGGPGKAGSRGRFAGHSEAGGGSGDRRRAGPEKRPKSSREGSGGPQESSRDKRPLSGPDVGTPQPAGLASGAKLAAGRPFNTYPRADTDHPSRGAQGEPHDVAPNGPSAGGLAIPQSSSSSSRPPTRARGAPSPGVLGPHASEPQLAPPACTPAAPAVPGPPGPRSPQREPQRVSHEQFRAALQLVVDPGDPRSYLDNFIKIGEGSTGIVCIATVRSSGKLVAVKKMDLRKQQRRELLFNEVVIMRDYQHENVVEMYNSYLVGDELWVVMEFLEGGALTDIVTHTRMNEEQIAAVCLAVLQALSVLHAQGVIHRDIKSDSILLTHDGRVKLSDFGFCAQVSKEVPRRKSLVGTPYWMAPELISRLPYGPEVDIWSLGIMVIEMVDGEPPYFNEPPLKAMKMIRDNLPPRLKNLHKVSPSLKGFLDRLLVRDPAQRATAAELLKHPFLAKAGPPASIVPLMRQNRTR

[6] = molecular target: Platelet-derived growth factor receptor beta (Homo sapiens) (UniProt P09619); assay: Inhibition of human PDGFRbeta assessed as residual activity at 1 uM relative to control
Platelet-derived growth factor receptor beta (Homo sapiens), sequence (P09619 whole entry): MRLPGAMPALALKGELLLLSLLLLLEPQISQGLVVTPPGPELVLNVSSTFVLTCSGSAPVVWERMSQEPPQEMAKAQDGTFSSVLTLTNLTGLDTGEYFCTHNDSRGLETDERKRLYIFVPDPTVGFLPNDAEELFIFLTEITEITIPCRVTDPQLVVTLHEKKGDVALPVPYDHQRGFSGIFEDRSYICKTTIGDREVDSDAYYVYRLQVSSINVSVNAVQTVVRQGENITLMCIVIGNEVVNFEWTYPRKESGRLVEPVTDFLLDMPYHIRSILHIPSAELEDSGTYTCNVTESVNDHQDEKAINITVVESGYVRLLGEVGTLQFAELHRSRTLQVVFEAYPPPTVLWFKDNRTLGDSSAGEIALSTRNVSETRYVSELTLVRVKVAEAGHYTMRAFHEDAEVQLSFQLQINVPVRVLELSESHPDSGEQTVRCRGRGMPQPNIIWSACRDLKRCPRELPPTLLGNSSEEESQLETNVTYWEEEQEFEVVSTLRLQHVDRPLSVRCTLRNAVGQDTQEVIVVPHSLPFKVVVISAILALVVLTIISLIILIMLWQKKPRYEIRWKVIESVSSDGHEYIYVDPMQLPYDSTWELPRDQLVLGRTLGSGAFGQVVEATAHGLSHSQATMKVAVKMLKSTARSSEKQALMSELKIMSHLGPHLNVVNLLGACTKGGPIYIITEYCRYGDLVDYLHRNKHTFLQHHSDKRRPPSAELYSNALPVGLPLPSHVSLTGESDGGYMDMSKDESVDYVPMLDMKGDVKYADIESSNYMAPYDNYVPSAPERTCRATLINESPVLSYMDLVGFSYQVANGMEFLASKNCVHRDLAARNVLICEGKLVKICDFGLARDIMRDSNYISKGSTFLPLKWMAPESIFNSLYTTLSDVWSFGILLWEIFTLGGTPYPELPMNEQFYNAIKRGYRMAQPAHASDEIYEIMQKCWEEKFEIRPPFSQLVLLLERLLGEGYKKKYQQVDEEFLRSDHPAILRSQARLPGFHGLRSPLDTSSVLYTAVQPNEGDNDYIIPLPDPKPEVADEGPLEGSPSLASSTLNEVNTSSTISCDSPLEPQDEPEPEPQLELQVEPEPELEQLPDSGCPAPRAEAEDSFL

Aurora kinase B = Aurora kinase B (Homo sapiens, UniProt Q96GD4); assay: Inhibition of aurora B (unknown origin)
Aurora kinase B, sequence (Q96GD4 whole entry): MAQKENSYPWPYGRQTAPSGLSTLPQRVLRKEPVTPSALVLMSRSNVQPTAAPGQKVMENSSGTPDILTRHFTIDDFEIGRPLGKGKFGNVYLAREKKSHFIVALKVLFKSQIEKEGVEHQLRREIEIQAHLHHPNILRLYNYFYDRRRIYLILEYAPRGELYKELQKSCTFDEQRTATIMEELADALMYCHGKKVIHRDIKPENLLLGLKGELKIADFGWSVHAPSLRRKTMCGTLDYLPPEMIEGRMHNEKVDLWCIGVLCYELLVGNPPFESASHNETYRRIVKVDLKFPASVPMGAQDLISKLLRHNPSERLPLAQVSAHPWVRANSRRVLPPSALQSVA

[7] = molecular target: Mast/stem cell growth factor receptor Kit (Homo sapiens) (UniProt P10721); assay: Inhibition of human cKIT assessed as residual activity at 1 uM relative to control
Mast/stem cell growth factor receptor Kit (Homo sapiens), sequence (P10721 whole entry): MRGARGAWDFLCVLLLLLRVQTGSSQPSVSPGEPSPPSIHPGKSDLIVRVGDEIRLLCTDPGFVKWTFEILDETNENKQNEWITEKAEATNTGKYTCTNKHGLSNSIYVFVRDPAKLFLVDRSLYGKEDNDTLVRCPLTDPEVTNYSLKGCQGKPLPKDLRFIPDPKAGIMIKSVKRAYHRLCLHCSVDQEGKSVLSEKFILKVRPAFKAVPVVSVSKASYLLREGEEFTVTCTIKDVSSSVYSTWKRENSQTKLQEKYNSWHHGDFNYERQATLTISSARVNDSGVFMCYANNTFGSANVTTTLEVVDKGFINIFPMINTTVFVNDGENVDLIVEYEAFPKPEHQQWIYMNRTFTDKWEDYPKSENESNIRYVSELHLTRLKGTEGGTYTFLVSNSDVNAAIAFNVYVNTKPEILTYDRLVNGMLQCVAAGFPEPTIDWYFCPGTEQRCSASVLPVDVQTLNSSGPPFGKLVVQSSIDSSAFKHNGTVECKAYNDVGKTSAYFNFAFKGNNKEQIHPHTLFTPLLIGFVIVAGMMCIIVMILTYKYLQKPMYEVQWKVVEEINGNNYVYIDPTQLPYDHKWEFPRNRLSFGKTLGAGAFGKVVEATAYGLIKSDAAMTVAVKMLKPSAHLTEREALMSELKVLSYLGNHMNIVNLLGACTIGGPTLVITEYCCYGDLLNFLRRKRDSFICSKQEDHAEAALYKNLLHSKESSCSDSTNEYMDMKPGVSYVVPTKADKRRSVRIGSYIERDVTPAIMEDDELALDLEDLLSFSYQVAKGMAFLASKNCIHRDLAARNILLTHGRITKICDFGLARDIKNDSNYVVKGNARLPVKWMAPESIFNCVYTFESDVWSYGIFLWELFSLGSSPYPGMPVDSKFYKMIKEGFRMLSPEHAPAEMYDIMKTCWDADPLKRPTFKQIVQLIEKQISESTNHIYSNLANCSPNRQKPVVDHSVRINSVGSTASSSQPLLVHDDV

[8] = molecular target: CDK6/cyclin D3 (Homo sapiens) (UniProt P30281+Q00534); assay: Inhibition of human CDK6/cyclin D3 assessed as residual activity at 1 uM relative to control; type: protein-complex assay
[9] = molecular target: T3, Myotonin-protein kinase (Homo sapiens) (UniProt Q09013); assay: Inhibition of human DMPK assessed as residual activity at 1 uM relative to control
T3 sequence (whole entry): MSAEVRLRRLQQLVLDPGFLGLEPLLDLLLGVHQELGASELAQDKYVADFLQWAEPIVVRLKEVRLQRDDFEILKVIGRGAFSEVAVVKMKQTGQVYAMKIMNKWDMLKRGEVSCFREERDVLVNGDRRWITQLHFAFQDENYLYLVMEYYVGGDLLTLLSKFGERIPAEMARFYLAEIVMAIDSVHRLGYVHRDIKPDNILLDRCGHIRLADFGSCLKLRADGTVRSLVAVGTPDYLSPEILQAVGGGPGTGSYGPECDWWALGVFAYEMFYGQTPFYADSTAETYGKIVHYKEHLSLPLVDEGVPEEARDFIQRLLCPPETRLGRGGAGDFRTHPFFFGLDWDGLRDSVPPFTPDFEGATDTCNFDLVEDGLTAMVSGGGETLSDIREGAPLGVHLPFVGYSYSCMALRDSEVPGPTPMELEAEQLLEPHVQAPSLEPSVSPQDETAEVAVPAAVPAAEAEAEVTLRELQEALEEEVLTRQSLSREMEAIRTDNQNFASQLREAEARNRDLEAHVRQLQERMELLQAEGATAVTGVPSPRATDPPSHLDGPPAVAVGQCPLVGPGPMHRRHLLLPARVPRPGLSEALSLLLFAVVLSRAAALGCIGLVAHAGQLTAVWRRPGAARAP

Row | Activity [1] | Activity [2] | Activity [3] | Activity [4] | Activity [5] | Activity [6] | IC50 (Aurora kinase B) | Activity [7] | Activity [8] | Activity [9] | Compound
1 | 92% | 91% | 88% | 91% | 89% | 64% | 5.92 µM | 103% | 103% | 97% | COc1ccc(-c2nc3cc(-c4csc(C(=O)NCC(C)C)c4)cnc3[nH]2)cc1
2 | 105% | 95% | 90% | 96% | 83% | 70% | 18.8 µM | 107% | 102% | 100% | COc1ccc(-c2nc3cc(-c4csc(C(=O)NCCC(C)C)c4)cnc3[nH]2)cc1
3 | 100% | 100% | 100% | 94% | 87% | 82% | 1.44 µM | 112% | 105% | 104% | COc1ccc(-c2nc3cc(-c4csc(C(=O)NCC(C)(C)C)c4)cnc3[nH]2)cc1
